We go through 88 compounds from ChEMBL document CHEMBL1157539, “Thousands of chemical starting points for antimalarial lead identification” (Nature, 2010).

Each structure is given as a SMILES string.

This assay has as its system Plasmodium falciparum. As to the kind of experiment: GSK_TCMDC: Inhibition of Plasmodium falciparum 3D7 in whole erythrocytes, using parasite LDH activity as an index of growth. In kind it is functional, organism-based. Particulars: Plasmodium falciparum, 3D7.
`CNc1nc(N/N=C/c2cc3c(cc2[N+](=O)[O-])OCO3)nc(Nc2cccc(C(F)(F)F)c2)n1`: the XC50 came to 771 nM.
To `Nc1c2ccccc2nc2cc(Cl)ccc12` belongs 715 nM.
To `CCc1cc2c3c(N)nc(N)nc3ccc2n1C(C)CC` (stereo not drawn) belongs 3.2 nM; to `C=CCOc1ccccc1CNCC(O)c1cc(Br)cs1` (stereo not drawn), 332 nM.
In turn, `O[C@H]1[C@H](OCc2ccc(-c3ccccc3)cc2)CC[C@@H]1N1CCCCC1` showed an XC50 of 1060 nM.
To `c1ccc(Oc2ccc(Nc3ccnc4cc(-c5cccc(CN6CCOCC6)c5)ccc34)cc2)cc1` belongs 336 nM; to `N#Cc1ccc(N2CCN(Cc3ccc(-c4ccc(-c5nc6ccccc6[nH]5)s4)cc3)CC2)nc1`, 1080 nM; to `CCCCCCN1CCCN(Cc2ccc(C(=O)Nc3ccc(C)c(F)c3)cc2)CC1`, 331 nM.
`Cc1cc(NC(=O)c2cccs2)ccc1OC1CCN(Cc2ccc(C#N)cc2)C1` (stereo not drawn) gave an XC50 of 847 nM.
In turn, `CCN(CC)CCCCCNc1c2ccc(Cl)cc2nc2ccc(OC)cc12` displayed an XC50 of 50.6 nM.
For `CCN(CC)CCCC(C)Nc1c(-c2ccc(OC)cc2)cnc2ccccc12` (stereo not drawn), the XC50 was 894 nM.
Under `Cc1nn(-c2ccnc3cc(Cl)ccc23)c(C)c1C(=O)NCc1cc(Cl)cc(Cl)c1` stands 869 nM; under `Cc1cccc(NC(=O)c2ccc(C(=O)NC3CCN(CC4CCCCC4)CC3)cc2)c1`, 805 nM.
To `O=[N+]([O-])c1cccc(CNCC2CCN(Cc3ccc(O)cc3)CC2)c1` belongs 666 nM; to `COc1ccc(NC(C)C(=O)Nc2ccc(Br)cc2)cc1S(=O)(=O)N1CCCCC1` (stereo not drawn), 221 nM.
`O=C(/C=C/c1ccc(Cl)c(Cl)c1)NCCCCCN1CCCC(CNC(=O)Nc2ccc(C(F)(F)F)cc2)C1` (stereo not drawn): the XC50 was found to be 668 nM.
Under `CS(=O)(=O)c1ccc(CNCc2ccc(-c3ccc(-c4nc5cc(F)ccc5[nH]4)s3)cc2)cc1` stands 268 nM; under `CN(C)CCN(Cc1ccccc1)c1ccc([N+](=O)[O-])cc1C(F)(F)F`, 776 nM; under `C=Cc1c(C2CCN(CCCCNC(=O)c3ccc(-c4ccc(C#N)cc4)cc3)CC2)ccc2c1CCCC2`, 878 nM.
As for `Fc1ccc2[nH]c(-c3ccc(-c4cccc(CN5CCCCC5)c4)cc3)nc2c1`, the XC50 amounted to 267 nM.
Under `COc1cc(NC(=O)N2CCOC(CCN3CCC4(CCc5ccccc54)CC3)(c3ccc(Cl)c(Cl)c3)C2)cc(OC)c1OC` (stereo not drawn) stands 156 nM.
To `Cc1nnnn1-c1ccc(C(=O)N2CCC3(CC2)CN(Cc2ccc(Cl)c(Cl)c2)C(=O)O3)cc1` belongs 181 nM; to `CCC(C)CN1CCC(N(C)c2cc(NC(=O)c3ccc(F)cc3)ccn2)CC1` (stereo not drawn), 977 nM; to `O=C(Nc1ccc(NC2=NCCN2)cc1)Nc1ccc(NC2=NCCN2)cc1`, 845 nM.
The compound `O=C(Nc1ccc(-c2cccc(-c3nc4cc(F)ccc4[nH]3)c2)cc1)c1cnn2cccnc12` registered an XC50 of 647 nM.
Under `CCc1ccc(-c2nc3cc(NC(=O)c4ccc([N+](=O)[O-])o4)ccc3o2)cc1` stands 250 nM.
To `Cc1cc(C)cc(NC(=S)NCCCCN2CCN(c3cccc(Cl)c3)CC2)c1` belongs 1350 nM; to `Fc1ccc2cc(C=Cc3ccncc3)[nH]c2c1`, 617 nM.
To `C[C@H](NC(=O)c1c(CN2CCC(N3CCCCC3=O)CC2)c(-c2cccs2)nc2ccccc12)C1CCCCC1` belongs 898 nM.
In turn, `CCC(C)Oc1ccc(CCCON2C(N)=NC(N)=NC2(C)C)cc1` (stereo not drawn) yielded an XC50 of 3.2 nM.
To `O=S(=O)(NC1CCC(CN2CCC(c3c[nH]c4ccccc34)CC2)CC1)c1ccc(Cl)c(Cl)c1` (stereo not drawn) belongs 817 nM; to `Cn1cc(CN2CCCC(COC(c3ccc(F)cc3)c3ccc(F)cc3)C2)cn1` (stereo not drawn), 571 nM; to `Cc1ccc(S(C)(=O)=O)cc1/C=C/C(=O)O`, 868 nM.
Under `CNCc1cccc2nc(-c3ccc(Cc4cc(Cl)ccc4OCC(C)C)o3)[nH]c12` stands 895 nM; under `CC(C)CNCc1cccc(-c2cccc(CN(CCN(C)C)C(=O)NCCc3ccccc3)c2)c1`, 693 nM; under `CC(C)(C)OC(=O)NCc1ccc(Nc2nnc(-c3cccc(OCC(=O)NCc4cc(C(F)(F)F)cc(C(F)(F)F)c4)c3)o2)cc1`, 832 nM.
`CC(C)Oc1cc2c(cc1NS(=O)(=O)c1ccc(-c3ccc(Cl)s3)cc1F)CCN(C)CC2` returned an XC50 of 712 nM.
To `O=C(/C=C/c1ccc(Cl)c(Cl)c1)NCCCCCN1CCC(NC(=O)c2ccc([N+](=O)[O-])cc2)CC1` belongs 672 nM; to `Oc1c(CNC2CCCCC2)cc(Cl)c2ccccc12`, 838 nM; to `O=C1CCCN1CCCNCc1cccc(-c2cccc(-c3nc4cc(F)ccc4[nH]3)c2)c1`, 598 nM.
Take `Cc1cc(C(=O)NCc2ccc(-c3c(C)noc3C)cc2)n(-c2ccc(Cl)cc2)n1`: the XC50 is 531 nM.
As to `O=C(Nc1cccc(-c2cccc(-c3nc4cc(C(F)(F)F)ccc4[nH]3)c2)c1)c1c[nH]cn1`, the XC50 stood at 206 nM.
The compound `C=CCOC(=O)N1CCC(CNCc2cccc(-c3ccc(-c4nc5cccc(C)c5[nH]4)s3)c2)C1` (stereo not drawn) had an XC50 of 248 nM.
Under `CCC(C)c1ccc(NC(=O)Nc2ccc(Cn3ncc(N4CCCNCC4)c(Cl)c3=O)cc2)cc1` (stereo not drawn) stands 1030 nM; under `O=C(NC1CCN(Cc2ccc(Cl)cc2)CC1)c1cn(-c2ccccc2)nc1-c1cccnc1`, 972 nM.
As for `COc1ccc(CCN2CCC(Nc3nc4ccccc4n3CCc3ccc(OC)cc3)CC2)cc1`, the XC50 was found to be 657 nM.
Turning to `CS(=O)(=O)NCCCNCc1cccc(-c2cccc(-c3nc4cc(F)ccc4[nH]3)c2)c1`, the XC50 was 938 nM.
Under `COc1ccc2c(OC)c(CNCCCCCCNCc3ccc4cc(OC)ccc4c3OC)ccc2c1` stands 920 nM; under `CCCCCCN1CCN(Cc2cccc(NC(=O)c3cccc(OCC)c3)c2)CC1`, 1110 nM.
For the compound `O=C(/C=C/c1ccc(Cl)c(Cl)c1)NCCCCCN1CCC(NC(=O)NC2CCCC2)CC1`, the XC50 is 631 nM.
In turn, `CN(C)CCNC(=O)NC1CN(c2ncnc3cc(-c4ccccc4)sc23)C1` displayed an XC50 of 585 nM.
Under `COc1ccc(-c2ccc(NC(=O)c3cccc(C#N)c3)cc2)cc1CN1CCN(C)CC1` stands 713 nM; under `COc1cc(Cc2cnc(N)nc2N)cc(OCCCCCCN)c1OC`, 190 nM.
To `CC(=O)Nc1ccc(C(=O)Nc2cccc(-c3ccc(-c4nc5cc(F)ccc5[nH]4)cc3)c2)cn1` belongs 174 nM.
To `Oc1ccc2c(c1CNC1CCCCC1)CCCC2` belongs 938 nM; to `N#CC(NC(=O)C=Cc1ccccc1)c1ccccc1` (stereo not drawn), 181 nM.
In turn, `CC(=O)CC(=O)N1CCN(c2ccccc2)CC1` gave an XC50 of 1060 nM.
To `Cc1[nH]c2ccccc2c1C1=CCN(CCCCC2(C)C(=O)Nc3ccccc32)CC1` (stereo not drawn) belongs 232 nM; to `NCCNc1ccc([N+](=O)[O-])cc1C(=O)Nc1cccc(C(F)(F)F)c1`, 905 nM.
In turn, `CC(C)c1ccc(CN2CCCCC(NC(=O)c3cc(-c4cccc(F)c4)cs3)C2)cc1` (stereo not drawn) had an XC50 of 945 nM.
In turn, `N=C(N)Nc1nc(-c2ccc(NC(=O)Nc3cccc(-c4csc(NC(=N)N)n4)c3)cc2)cs1` gave an XC50 of 1010 nM.
In turn, `Clc1ccccc1CN1CCC(NCc2cccc(-n3ccnc3)c2)CC1` registered an XC50 of 786 nM.
In the case of `Cc1cc(NC(=O)Nc2ccc3sccc3c2)c2ccccc2n1`, the XC50 came to 530 nM.
Under `O=C(NCCCN1CCOCC1)c1csc(Nc2ccc(Cl)c(Cl)c2)n1` stands 919 nM.
To `CNC(=O)c1ccc2nc(-c3ccc(-c4ccccc4)cc3)n(CC3CCN(CC4CCCC4)CC3)c2c1` belongs 42.5 nM; to `Cc1c(Cl)cccc1S(=O)(=O)Nc1ccc(CCN2CCC(N)CC2)cc1`, 1460 nM.
To `COC(=O)Cn1c(C2CCN(CC3CCC(NC(=O)/C=C/c4ccc(Cl)c(Cl)c4)CC3)CC2)nc2ccccc21` (stereo not drawn) belongs 1140 nM; to `CCc1c(C)nc(-n2nc(C)cc2NC(=O)c2ccc(OC)cc2OC)[nH]c1=O`, 827 nM.
`COc1ccc(NC(=O)c2c(NC(=O)c3cccs3)sc3c2CCCC3)cc1` came in with an XC50 of 448 nM.
Under `NC1CCN(c2nc(NCCc3ccc(O)cc3)nc(NCc3ccccc3-c3ccc(C(F)(F)F)cc3)n2)CC1` stands 746 nM.
To `Cc1nc2ccc(NC(=O)Nc3ccnc4ccc(C(F)(F)F)cc34)cc2o1` belongs 912 nM.
Under `N=C(NCc1ccc(O)cc1)Nc1nc(-c2ccc(OCCCn3ccnc3)cc2)cs1` stands 749 nM; under `C#CCCOc1ccc2ccccc2c1CNCCCCCCNCc1c(OCCC#C)ccc2ccccc12`, 811 nM; under `O=C(NCc1ccccc1)Nc1ccc(-c2cccc(-c3nc4cc(C(F)(F)F)ccc4[nH]3)c2)cc1`, 662 nM.
With `COc1cc(NCCCCNc2ccc(Cl)c(Cl)c2)nc2ccccc12`, the XC50 was 527 nM.
To `Cc1cccc2nc(-c3cccc(-c4ccc(NC(=O)Nc5ccc6c(c5)OCO6)cc4)c3)[nH]c12` belongs 145 nM.
Take `O=C(Nc1ccccc1)Nc1cccc(-c2cccc(-c3nc4cc(F)ccc4[nH]3)c2)c1`: the XC50 is 176 nM.
As to `CCOc1cc(C(=O)N[C@@H](Cc2ccccc2)[C@H](O)CNCc2cc(OC)cc(OC)c2)cc(N2CCCS2(=O)=O)c1`, the XC50 came to 748 nM.
Compound `COc1ccc(NC(=O)Nc2ccc(-c3ccc(-c4nc5cccc(C)c5[nH]4)s3)cc2)cc1` had an XC50 of 175 nM.
`O=C(/C=C/c1ccc(Cl)c(Cl)c1)N1CCC(CN2CCC(c3c[nH]c4ccccc34)C(O)C2)CC1` (stereo not drawn) displayed an XC50 of 809 nM.
Compound `O=C(/C=C/c1ccc(Cl)c(Cl)c1)NCCCCCN1CCC(CCNC(=O)C2(c3ccc(Cl)cc3)CC2)CC1` returned an XC50 of 925 nM.
Under `O=C(Nc1ccccc1Oc1ccccc1)NC1CCN(c2ccnc3cc(Cl)ccc23)C1` (stereo not drawn) stands 167 nM; under `COCCN1CCN(Cc2cccc(-c3ccc(-c4nc5ccccc5[nH]4)cc3)c2)CC1`, 761 nM.
Under `Oc1ccc(CN2CCN(CCOC(c3ccc(F)cc3)c3ccc(F)cc3)CC2)cc1Cl` stands 935 nM; under `CCOC(=O)c1cnc2c(OC)cc(OC)c(Cl)c2c1Nc1cccc(C)c1C`, 310 nM.
The compound `Oc1cc(-c2nc(C3(CNCc4ccc(Cl)cc4)CCCCC3)[nH]c2-c2ccncc2)ccc1Cl` registered an XC50 of 125 nM.
The compound `COc1ccccc1C1CCN(CCCCNC(=O)c2ccc(NC(=O)c3ccc(Cl)cc3)cc2)CC1` yielded an XC50 of 244 nM.
Under `C#CC(C)(CO)N1CCCC1` (stereo not drawn) stands 379 nM.
